Data on 24 compounds can be found in patent US10975056B2 (GlaxoSmithKline Intellectual Property Development Limited, priority 2016, dated 2021).

Structures are written as SMILES. “And” between values parts separate entries of the source, which are not always exact repeats. Equal values may be shown once. Where a name gives a salt, the structure may show the parent alone. Read-outs that look alike come from different tables or passages of the source. Bounds are passed on as bounds.

Assay [1] deals with DNMT1 (Homo sapiens, UniProt P26358). Nature of the assay: DNMT1 biochemical activity, breaklight assay and/or SPA assay.
DNMT1, sequence (P26358 whole entry, looked up): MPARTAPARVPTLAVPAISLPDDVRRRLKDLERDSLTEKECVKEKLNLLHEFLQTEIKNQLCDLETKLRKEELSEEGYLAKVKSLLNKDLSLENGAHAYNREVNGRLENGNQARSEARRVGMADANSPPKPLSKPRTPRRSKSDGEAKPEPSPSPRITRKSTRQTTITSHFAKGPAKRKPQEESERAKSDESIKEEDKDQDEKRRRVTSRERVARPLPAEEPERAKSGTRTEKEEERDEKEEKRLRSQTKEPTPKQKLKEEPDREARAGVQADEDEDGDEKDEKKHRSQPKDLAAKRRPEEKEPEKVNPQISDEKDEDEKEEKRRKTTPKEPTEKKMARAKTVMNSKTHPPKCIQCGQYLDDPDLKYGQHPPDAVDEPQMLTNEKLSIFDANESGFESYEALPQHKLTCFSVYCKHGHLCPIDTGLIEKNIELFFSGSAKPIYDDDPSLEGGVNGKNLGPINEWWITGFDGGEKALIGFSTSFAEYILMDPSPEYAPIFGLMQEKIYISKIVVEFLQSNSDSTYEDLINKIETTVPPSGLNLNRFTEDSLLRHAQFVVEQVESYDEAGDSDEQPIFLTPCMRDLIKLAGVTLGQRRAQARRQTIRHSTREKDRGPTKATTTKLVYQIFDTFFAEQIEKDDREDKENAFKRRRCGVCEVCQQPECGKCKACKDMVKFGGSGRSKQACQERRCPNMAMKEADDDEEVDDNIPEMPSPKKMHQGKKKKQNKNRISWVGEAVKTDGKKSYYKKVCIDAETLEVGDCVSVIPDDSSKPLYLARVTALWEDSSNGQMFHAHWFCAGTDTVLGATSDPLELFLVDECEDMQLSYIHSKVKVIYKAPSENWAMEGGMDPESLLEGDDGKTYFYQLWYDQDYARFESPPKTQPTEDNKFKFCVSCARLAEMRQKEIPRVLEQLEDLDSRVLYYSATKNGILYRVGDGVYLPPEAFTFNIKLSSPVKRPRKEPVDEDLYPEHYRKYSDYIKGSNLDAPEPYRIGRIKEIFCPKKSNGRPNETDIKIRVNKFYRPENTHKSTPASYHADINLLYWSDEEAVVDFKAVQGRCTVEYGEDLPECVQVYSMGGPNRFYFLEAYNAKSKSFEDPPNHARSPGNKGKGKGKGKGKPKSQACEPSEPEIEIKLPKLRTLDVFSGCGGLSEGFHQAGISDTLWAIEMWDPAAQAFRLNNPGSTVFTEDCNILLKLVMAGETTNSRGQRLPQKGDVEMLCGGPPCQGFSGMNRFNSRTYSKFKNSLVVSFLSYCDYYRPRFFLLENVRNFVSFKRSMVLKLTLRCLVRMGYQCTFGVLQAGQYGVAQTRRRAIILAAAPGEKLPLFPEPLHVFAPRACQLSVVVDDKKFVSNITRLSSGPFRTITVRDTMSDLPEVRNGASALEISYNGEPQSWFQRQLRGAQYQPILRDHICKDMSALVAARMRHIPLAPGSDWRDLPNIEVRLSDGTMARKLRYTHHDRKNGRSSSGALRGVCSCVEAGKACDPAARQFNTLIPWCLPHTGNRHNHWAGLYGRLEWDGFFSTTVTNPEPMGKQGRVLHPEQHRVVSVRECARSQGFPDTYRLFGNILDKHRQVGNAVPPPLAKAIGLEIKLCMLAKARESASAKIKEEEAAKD
The test system of assay [2] is erythroid progenitor cells (EPCs). Kind of assay: Fetal hemoglobin (HbF) ELISA in day 7 erythroid progenitor cells.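 Also: for fetal hemoglobin induction normalized to vehicle-treated cells.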 Particulars: Homo sapiens, Erythroid progenitor cell, HbF ELISA, day 7 EPCs, 5 days; read-out: EPC ELISA (pEC50 category) (converted). The format is cell-based, human. The method in brief:
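Read-out was OD450 from an HRP/TMB sandwich ELISA on lysates, normalized to DMSO-only control wells. Thawed day 7 EPCs from human marrow CD34+ cells had been treated for 5 days at 37° C with Compound A, 22 concentrations […].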
A general note: In an ELISA, binding on a coated surface is turned into a signal by an enzyme label.

Setting [3] is: binned activity in either the breaklight or the SPA assay.
[4] abbreviates: binned activity in either the breaklight or the SPA assay, read-out: DNMT1 BioChemical (pIC50 category) (converted).
[5] abbreviates: breaklight assay and/or SPA assay, repeated experimental runs, read-out: average pIC50 against DNMT1 (converted).

As to `CCc1c(C#N)c(SC(C(N)=O)c2ccccc2)nc(N(C)CC(=O)N(CCO)CCO)c1C#N` (stereo not shown) [Example 668, 2-((6-((2-amino-2-oxo-1-phenylethyl)thio)-3,5-dicyano-4-ethylpyridin-2-yl)(methyl)amino)-N,N-bis(2-hydroxyethyl)acetamide], in assay [1] (setting [3]), the “DNMT1 BioChemical (pIC50 category)” value was “D (Category D: ≥6.5)”. The EC50 in assay [2] is 316 to 1000 nM.

In the case of `CCc1c(C#N)c(SC(C(N)=O)c2ccccc2)nc(N2CCN(N)CC2)c1C#N` (stereo not shown) [Example 234, 2-((6-(4-Aminopiperazin-1-yl)-3,5-dicyano-4-ethylpyridin-2-yl)thio)-2-phenylacetamide, Trifluoroacetic Acid Salt], in assay [1] (setting [4]), the IC50 was 316 to 1000 nM. Also, the EC50 in assay [2] was 1000 to 31600 nM.

Consider `CCc1c(C#N)c(S[C@H](C(N)=O)c2ccc(F)cc2)nc(N2CCC(N(C)C)CC2)c1C#N` (single isomer, unassigned) [Example 465, 2-((3,5-dicyano-6-(4-(dimethylamino)piperidin-1-yl)-4-ethylpyridin-2-yl)thio)-2-(4-fluorophenyl)acetamide, Formic acid salt], for which the “DNMT1 BioChemical (pIC50 category)” value in assay [1] (setting [3]) was “D (Category D: ≥6.5)”. Also, the EC50 in assay [2] is under 316 nM.

As for `CCc1c(C#N)c(S[C@@H](C(N)=O)c2ccc(F)cc2F)nc(N2CC[C@H](O)C2)c1C#N` [Example 674, (R)-2-((3,5-dicyano-4-ethyl-6-((S)-3-hydroxypyrrolidin-1-yl)pyridin-2-yl)thio)-2-(2,4-difluorophenyl)acetamide], in assay [1] (setting [3]), the “DNMT1 BioChemical (pIC50 category)” value was “D (Category D: ≥6.5)”. In assay [2], the EC50 is 1000 to 31600 nM.

With `CCc1c(C#N)c(SC(C(N)=O)c2ccccc2)nc(N2CCC(N3CCOCC3)CC2)c1C#N` (stereo not shown) [Example 503, 2-((3,5-dicyano-4-ethyl-6-(4-morpholinopiperidin-1-yl)pyridin-2-yl)thio)-2-phenylacetamide], in assay [1] (setting [3]), the “DNMT1 BioChemical (pIC50 category)” value is given as “D (Category D: ≥6.5)”. The EC50 in assay [2] is 316 to 1000 nM.

Consider `CCc1c(C#N)c(SC(C(N)=O)c2ccccc2)nc(N(C)CCNCCF)c1C#N` (stereo not shown) [Example 495, 2-((3,5-dicyano-4-ethyl-6-((2-((2-fluoroethyl)amino)ethyl)(methyl)amino)pyridin-2-yl)thio)-2-phenylacetamide], for which the “DNMT1 BioChemical (pIC50 category)” value in assay [1] (setting [3]) was “D (Category D: ≥6.5)”. Also, the EC50 in assay [2] is 1000 to 31600 nM.

For `CCc1c(C#N)c(SCc2ccc(N(C)S(C)(=O)=O)cc2)nc(N2CCC(NCC(C)(C)C)CC2)c1C#N` [Example 569, N-(4-(((3,5-dicyano-4-ethyl-6-(4-(neopentylamino)piperidin-1-yl)pyridin-2-yl)thio)methyl)phenyl)-N-methylmethanesulfonamide], the “DNMT1 BioChemical (pIC50 category)” value in assay [1] (setting [3]) was “D (Category D: ≥6.5)”. For the same compound, the EC50 in assay [2] was under 316 nM.

Take `CCc1c(C#N)c(S[C@@H](C(N)=O)c2ccccc2)nc(N2CCC(N3CCCC3)CC2)c1C#N` [Example 405, (R)-2-((3,5-Dicyano-4-ethyl-6-(4-(pyrrolidin-1-yl)piperidin-1-yl)pyridin-2-yl)thio)-2-phenylacetamide]: the “DNMT1 BioChemical (pIC50 category)” value in assay [1] (setting [3]) is reported as “D (Category D: ≥6.5)”. Further, the EC50 in assay [2] is under 316 nM.

As for `CCc1c(C#N)c(SC(C(N)=O)c2ccccc2)nc(N2CCC(NC(C)(C)C(=O)OC)CC2)c1C#N` (stereo not shown) [Example 487, methyl 2-((1-(6-((2-amino-2-oxo-1-phenylethyl)thio)-3,5-dicyano-4-ethylpyridin-2-yl)piperidin-4-yl)amino)-2-methylpropanoate], the “DNMT1 BioChemical (pIC50 category)” value in assay [1] (setting [3]) is “D (Category D: ≥6.5)”. Besides, the EC50 in assay [2] was under 316 nM.

Take `CCc1c(C#N)c(SCC(N)=O)nc(SC(C(N)=O)c2ccccc2)c1C#N` (stereo not shown) [Example 235, 2-((6-((2-Amino-2-oxoethyl)thio)-3,5-dicyano-4-ethylpyridin-2-yl)thio)-2-phenylacetamide]: in assay [1] (setting [4]), the IC50 was 316 to 1000 nM. The EC50 in assay [2] is 316 to 1000 nM.

For the compound `CCc1c(C#N)c(SCc2ccc3c(c2)C(=O)C(=O)N3)nc(N2CCCN(C)CC2)c1C#N` [Example 348, 2-(((2,3-Dioxoindolin-5-yl)methyl)thio)-4-ethyl-6-(4-methyl-1,4-diazepan-1-yl)pyridine-3,5-dicarbonitrile], in assay [1] (setting [4]), the IC50 is 316 to 1000 nM. For the same compound, the EC50 in assay [2] was over 31600 nM.

On to `CN(CCO)c1nc(SC(C(N)=O)c2ccccc2)c(C#N)c(C2CC2)c1C#N` (stereo not shown) [Example 386, 2-((3,5-Dicyano-4-cyclopropyl-6-((2-hydroxyethyl)(methyl)amino)pyridin-2-yl)thio)-2-phenylacetamide], for which the IC50 in assay [1] (setting [4]) was 316 to 1000 nM. Also, the EC50 in assay [2] is 1000 to 31600 nM.

For the compound `CCc1c(C#N)c(SCc2cnn(CC(O)CO)c2)nc(N2CCC(N)CC2)c1C#N` (stereo not shown) [Example 380, 2-(4-Aminopiperidin-1-yl)-6-(((1-(2,3-dihydroxypropyl)-1H-pyrazol-4-yl)methyl)thio)-4-ethylpyridine-3,5-dicarbonitrile, Hydrochloride], the IC50 in assay [1] (setting [4]) was 316 to 1000 nM. In addition, the EC50 in assay [2] is 1000 to 31600 nM.

In the case of `CCc1c(C#N)c(SC(C(N)=O)c2ccccc2)nc(N2CCOC(CN)C2)c1C#N` (stereo not shown) [Example 562, 2-((6-(2-(aminomethyl)morpholino)-3,5-dicyano-4-ethylpyridin-2-yl)thio)-2-phenylacetamide], in assay [1] (setting [3]), the “DNMT1 BioChemical (pIC50 category)” value was “D (Category D: ≥6.5)”. Besides, the “average pIC50 against DNMT1” value in assay [1] (breaklight assay and/or SPA assay, repeated experimental runs) was over 6.5. Also, the IC50 in assay [1] (setting [5]) was 79.4 nM. For the same compound, the EC50 in assay [2] was under 316 nM.

For the compound `CCc1c(C#N)c(SC(C(N)=O)c2ccc(C(N)=O)cc2)nc(N(C)C)c1C#N` (stereo not shown) [Example 375, 4-(2-Amino-1-((3,5-dicyano-6-(dimethylamino)-4-ethylpyridin-2-yl)thio)-2-oxoethyl)benzamide], the “DNMT1 BioChemical (pIC50 category)” value in assay [1] (setting [3]) is “D (Category D: ≥6.5)”. Also, the EC50 in assay [2] was 1000 to 31600 nM.

Regarding `CCc1c(C#N)c(SC(C(N)=O)c2ccccc2)nc(N2CCC3(CCCN(CC4CC4)C3)CC2)c1C#N` (stereo not shown) [Example 119, 2-((3,5-Dicyano-6-(2-(cyclopropylmethyl)-2,9-diazaspiro[5.5]undecan-9-yl)-4-ethylpyridin-2-yl)thio)-2-phenylacetamide hydrochloride], the IC50 was 316 to 1000 nM in assay [1] (setting [4]); 316 to 1000 nM and 398 nM in assay [1] (setting [5]). Besides, the EC50 in assay [2] is under 316 nM.

In the case of `CCc1c(C#N)c(SC(C(N)=O)c2ccccc2)nc(N2CCC(OC(=O)[C@@H](N)C(C)C)CC2)c1C#N` (stereo partly drawn) [Example 274, 1-(6-((2-Amino-2-oxo-1-phenylethyl)thio)-3,5-dicyano-4-ethylpyridin-2-yl)piperidin-4-yl (2S)-2-amino-3-methylbutanoate], in assay [1] (setting [3]), the “DNMT1 BioChemical (pIC50 category)” value is recorded as “D (Category D: ≥6.5)”. For the same compound, the EC50 in assay [2] was under 316 nM.

Consider `CCc1c(C#N)c(SCc2ccc(N(C)S(C)(=O)=O)cc2)nc(N2CCC(NC(=O)CN)CC2)c1C#N` [Example 590, 2-amino-N-(1-(3,5-dicyano-4-ethyl-6-((4-(N-methylmethylsulfonamido)benzyl)thio)pyridin-2-yl)piperidin-4-yl)acetamide], for which, in assay [1] (setting [3]), the “DNMT1 BioChemical (pIC50 category)” value is listed as “D (Category D: ≥6.5)”. In addition, the EC50 in assay [2] was 1000 to 31600 nM.

Take `CCc1c(C#N)c(SCc2ccc(CNC(=O)CCN)cc2)nc(N2CCCN(C)CC2)c1C#N` [Example 96, 3-Amino-N-(4-(((3,5-dicyano-4-ethyl-6-(4-methyl-1,4-diazepan-1-yl)pyridin-2-yl)thio)methyl)benzyl)propanamide]: the “DNMT1 BioChemical (pIC50 category)” value in assay [1] (setting [3]) is on record as “D (Category D: ≥6.5)”. Further, the EC50 in assay [2] is over 31600 nM.

Take `CCc1c(C#N)c(SCc2ccc(CNS(C)(=O)=O)cc2)nc(N2CCCN(C)CC2)c1C#N` [Example 79, N-(4-(((3,5-Dicyano-4-ethyl-6-(4-methyl-1,4-diazepan-1-yl)pyridin-2-yl)thio)methyl)benzyl)methanesulfonamide]: the “DNMT1 BioChemical (pIC50 category)” value in assay [1] (setting [3]) is “D (Category D: ≥6.5)”. Also, the IC50 in assay [1] (setting [5]) was 316 nM. The EC50 in assay [2] is 316 to 1000 nM.

As to `CCc1c(C#N)c(SCc2ccc(N(C)S(C)(=O)=O)cc2)nc(N2CCC(NC3CC3)CC2)c1C#N` [Example 573, N-(4-(((3,5-dicyano-6-(4-(cyclopropylamino)piperidin-1-yl)-4-ethylpyridin-2-yl)thio)methyl)phenyl)-N-methylmethanesulfonamide], the “DNMT1 BioChemical (pIC50 category)” value in assay [1] (setting [3]) is on record as “D (Category D: ≥6.5)”. In assay [2], the EC50 is under 316 nM.

`CCc1c(C#N)c(SCc2ccc(N(C)S(C)(=O)=O)cc2)nc(N2CCOC(CNC)C2)c1C#N` (stereo not shown) [Example 596, N-(4-(((3,5-dicyano-4-ethyl-6-(2-((methylamino)methyl)morpholino)pyridin-2-yl)thio)methyl)phenyl)-N-methylmethanesulfonamide]: in assay [1] (setting [3]), the “DNMT1 BioChemical (pIC50 category)” value is “D (Category D: ≥6.5)”. The EC50 in assay [2] was 316 to 1000 nM.

As for `CCc1c(C#N)c(S[C@H](C(N)=O)c2ccccc2)nc(N2CC(N)C2)c1C#N` (stereo in doubt) [Example 635, 2-((6-(3-aminoazetidin-1-yl)-3,5-dicyano-4-ethylpyridin-2-yl)thio)-2-phenylacetamide], the “DNMT1 BioChemical (pIC50 category)” value in assay [1] (setting [3]) was “D (Category D: ≥6.5)”. In addition, in assay [2], the EC50 was 316 to 1000 nM.

On to `CCc1c(C#N)c(SCc2ccc(N)nc2)nc(N2CCCN(C)CC2)c1C#N` [Example 300, 2-(((6-Aminopyridin-3-yl)methyl)thio)-4-ethyl-6-(4-methyl-1,4-diazepan-1-yl)pyridine-3,5-dicarbonitrile], for which the IC50 in assay [1] (setting [4]) was 316 to 1000 nM. In assay [2], the EC50 is 1000 to 31600 nM.
